{"source": "patent US7576133B2", "about": "“Methods and compositions for nasal administration of modafinil” (priority 2002, dated 2009)", "origin": "cited, not measured here"}
{"smiles": "NC(=O)C[S+]([O-])C(c1ccccc1)c1ccccc1", "note": "(racemic) [Modafinil, 2-[(diphenylmethyl)sulfinyl] acetamide]", "values": [{"measurement": "solubility in lower alcohols", "setting": "lower alcohols", "result": "slightly soluble"}, {"measurement": "solubility in water", "setting": "water", "result": "practically insoluble"}]}
